From the OPERA property sets (Mansouri et al. 2018)

| SMILES | logP |
| --- | --- |
| COc1cc(CC(C)N)cc(OC)c1OC (stereo unspecified) | 1.21 |
| CON(C)C(=O)Nc1ccc(C(C)C)cc1 | 2.95 |
| CCCCC1=Nc2ccc(Cl)cc2S(=O)(=O)N1 | 2.52 |
| Cc1noc(-c2ccccn2)n1 | 0.89 |
| COc1cc(S(=O)(=O)CCN2CCCCC2)cc(OC)c1OC | 1.6 |
| CCC1(CC2COc3ccccc3O2)C(=O)NC(=O)NC1=O (stereo unspecified) | 1.85 |
| FC(F)(F)CCc1ccccc1 | 3.31 |
| O=[N+]([O-])c1nccn1CCOc1ccccc1 | 1.89 |
| COc1cccc(N2C(=O)CCC2=O)c1 | 0.18 |
| CCOP(=S)(OCC)SCS(=O)CC (stereo unspecified) | 1.78 |
| CSc1ccc2c(c1)C(c1ccccc1)=NCC(=O)N2C | 2.95 |
| CN(N=O)C1CCCCC1 | 1.43 |
| CCN(CC)CCNC(=O)c1cc(F)cc(Cl)c1OC | 3.18 |
| CCc1cccc(OC2OC(CO)C(O)C(O)C2O)c1 (stereo unspecified) | 0.31 |
| O=C(O)c1ccccc1Nc1cccc([N+](=O)[O-])c1 | 4.57 |
| Cn1nnnc1Sc1ccccc1 | 1.63 |
| Cc1ccc2c([N+](=O)[O-])cc[n+]([O-])c2c1 | 1.42 |
| O=S(=O)(Nc1ccc(Cl)cc1)C(F)(F)F | 3.96 |
| O=C(CN1CCCCC1)Nc1cccc(Cl)c1 | 3.45 |
| Nc1cnc2ccccc2n1 | 1.5 |
| COCCN(CCOC)/N=N/c1nc[nH]c1C(N)=O | 0.03 |
| CCOC(=O)C(C#N)=NNc1ccc(Cl)c(Cl)c1 | 4.66 |
| CCNCNC(=O)c1ccccc1 | 0.56 |
| CSC(C)=NOC(=O)N(C)SN(C)C(=O)c1c(Cl)cccc1Cl | 2.6 |
| Cc1cc2c(cc1Cc1cnc(N)nc1N)OCO2 | 1.89 |
| S=C=Nc1ccc(N=Nc2ccccc2)cc1 | 5.55 |

| SMILES | logP |
| --- | --- |
| CC1(C)N=C(N)N=C(N)N1c1ccc(C(F)(F)F)cc1 | 1.22 |
| CCC(C)C(NC(C)=O)C(N)=O (stereo unspecified) | -0.03 |
| CC(=O)Nc1n[nH]c(NC(C)=O)n1 | -1.02 |
| OCC1OC(Oc2ccc(I)c(OC3OC(CO)C(O)C(O)C3O)c2I)C(O)C(O)C1O (stereo unspecified) | -1.31 |
| O=[N+]([O-])c1cnc(N=C2NCC(O)CN2)s1 (stereo unspecified) | 0.74 |
| Cc1cccc2c([N+](=O)[O-])cc[n+]([O-])c12 | 1.59 |
| O=C(O)C1c2ccccc2Cc2ccccc21 | 2.78 |
| COc1cc(C)c(Cc2cnc(N)nc2N)cc1OCc1ccccc1 | 2.69 |
| CCOP(=S)(OCC)SCS(=O)C(C)(C)C (stereo unspecified) | 2.21 |
| CNC(=O)ON=Cc1ccc(Cl)c(Cl)c1 | 2.89 |
| CNP(=O)(OC)SC (stereo unspecified) | -0.07 |
| CSC(C)=NOC(=O)N(C)SN(C)C(=O)c1ccccc1Cl | 2.5 |
| CN(C)N=Nc1cccc([N+](=O)[O-])c1 | 2.75 |
| CCCCCCCC[n+]1ccccc1C.[I-] | -0.77 |
| COc1cc(Cc2cnc(N)nc2N)cc(OC)c1Cl | 1.87 |
| N#CCNc1ccccc1C(=O)O | 1.8 |
| CC(=O)Nc1ccccc1C(C)=O | 1.5 |
| O=C(O)Cc1ccc(OCc2ccccc2)c(Br)c1 | 3.51 |
| CCCOC(=O)NC | 0.95 |
| CS(=O)(=O)c1cccc(NC(N)=O)c1 | -0.12 |
| CCNC1CC2CC1c1ccccc12 (stereo unspecified) | 2.72 |
| CCOC(=O)CCCCCn1nnc2ccccc21 | 2.68 |
| CNC(=O)C1CCCN1C(C)=O (stereo unspecified) | -1.19 |
| NS(=O)(=O)c1nc2ccc(O)cc2s1 | 1.13 |
| CC1(C)CCCC(C)(C)N1N=O | 2.49 |
| CCCSc1nnc(C(C)C)c(=O)n1N | 2.12 |

| SMILES | logP |
| --- | --- |
| COC1C(Cl)C(Cl)C(OC)C(Cl)C1Cl (stereo unspecified) | 3.15 |
| CCCCc1ccc2nc(C(F)(F)F)[nH]c2c1 | 4.27 |
| CCCCCC[n+]1ccc(C)c(C)c1.[I-] | -1.51 |
| CC1=NS(=O)(=O)c2ccc(Cl)cc2N1 | 1.21 |
| CC(=O)Nc1ccc(OC(=O)CBr)cc1 | 1.08 |
| CCCCCn1nnc2ccccc21 | 3.22 |
| CS(=O)(=O)c1cnc2ccccc2n1 | 0.79 |
| COC1C(Cl)C(Cl)C(Cl)C(OC)C1OC (stereo unspecified) | 1.87 |
| CCCCCCN(SN(C)C(=O)ON=C(C)SC)C(=O)N(C)C | 3.3 |
| ClC1C(Cl)C(Cl)C(Br)C(Br)C1Cl (stereo unspecified) | 3.88 |
| CC(C)c1ccc(C(O)C(CO)NC(=O)C(Cl)Cl)cc1 (stereo unspecified) | 2.24 |
| CCc1cnc(C=Cc2ccc([N+](=O)[O-])o2)nc1 | 1.55 |
| ClC1C(Cl)C(Cl)C(Br)C(Cl)C1Cl (stereo unspecified) | 3.74 |
| CN(CCO)N=Nc1ccccc1 | 1.71 |
| O=S(=O)(Nc1cccc(F)c1)C(F)(F)F | 3.42 |
| S=C=NCc1cccc2ccccc12 | 4.42 |
| CN(C)c1ccc(N(C)C)nn1 | 0.99 |
| COc1cc(CC(C)N)c(OC)cc1Br (stereo unspecified) | 2.58 |
| CN(C)c1nnc(-c2ccccc2)c2ccccc12 | 3.22 |
| O=[N+]([O-])c1ccc(Oc2ccc(C(F)(F)F)cc2[N+](=O)[O-])cc1 | 3.65 |
| CCCCCCCCCCCCCCCC[n+]1ccc(C)c(C)c1.[I-] | 3.16 |
| COc1cc(Cc2cnc(N)nc2N)cc(Cl)c1OC | 1.92 |
| O=[N+]([O-])c1cnc(NC2=NCCN2CCO)s1 | 1.23 |
| COc1ccc(OC)c(NC2=NCCN2)c1 | 0.97 |
